{
  "source": "paper PMC8160813",
  "about": "“Design, Synthesis, and Evaluation of Dihydropyranopyrazole Derivatives as Novel PDE2 Inhibitors for the Treatment of Alzheimer’s Disease” (Molecules, 2021)",
  "assay_type_in_all_cases": "biochemical",
  "key": {"[1]": {"target": "T1, PDE2A (catalytic domain, 580–919) (Homo sapiens, UniProt O00408)", "T1 construct": "made in house; host or cells: E. coli BL21 (CodonPlus)", "T1 sequence (O00408 580-919)": "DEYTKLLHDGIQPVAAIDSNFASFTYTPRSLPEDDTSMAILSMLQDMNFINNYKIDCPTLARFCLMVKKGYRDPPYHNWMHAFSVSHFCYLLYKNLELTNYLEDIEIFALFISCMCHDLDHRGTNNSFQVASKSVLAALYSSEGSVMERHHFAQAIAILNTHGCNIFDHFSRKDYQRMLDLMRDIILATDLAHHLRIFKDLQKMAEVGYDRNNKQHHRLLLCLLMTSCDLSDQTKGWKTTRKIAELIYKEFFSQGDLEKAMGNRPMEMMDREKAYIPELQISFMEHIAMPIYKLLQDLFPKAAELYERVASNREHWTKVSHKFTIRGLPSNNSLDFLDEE", "test": "In vitro PDE2 enzymatic inhibition assay (3H-cGMP substrate)", "conditions": "for inhibition at 0.1 µM / inhibition at 0.5 µM: PDE2; for inhibition at 0.1 µM: compound at 0.1 μM, read-out: Inhibition Ratio (%) 0.1 μM; for inhibition at 0.5 µM: compound at 0.5 μM, read-out: Inhibition Ratio (%) 0.5 μM; for IC50: means ± SD of three experiments, 3H-cGMP, 25 °C, 15 min, read-out: IC50 (nM) against PDE2", "experimental": "Purification and expression of the recombinant pET15b-PDE2A plasmid (catalytic domain, 580–919) was performed following our previously reported method. The plasmid pET15b-PDE2A (catalytic domain, 580–919) was transferred to thawed competent E. coli BL21 cells (CodonPlus, Agilent Technologies, Santa Clara, CA, USA), which were grown in 2XYT medium with 100 μg/mL ampicillin and 20 μg/mL chloramphenicol at 37 °C until OD600 = 0.6–0.8. Then, 0.1 mM isopropylthiogalactoside was added for induction, and protein expression was induced by continuing to grow the cells at 16 °C for 24 h. After that, bacteria were collected by centrifugation and frozen overnight at −20 °C. The bacteria containing the recombinant plasmid of the target protein were subjected to cell disruption and passed through a Ni-NTA agarose affinity column, Q-Sepharose ion-exchange column and other steps. The purity can be 95% or more, and a typical purification batch produces 10–20 mg of PDE2A protein from 1.0 L of cell culture.\nUsing the appropriate concentration of ^3H-cGMP as the substrate, different compound solutions were added to the test group, DMSO was added to the negative control and blank control groups, and EHNA was added to the positive control group, followed by protein solution (the proteins were all diluted with Assay Buffer); Assay Buffer was added to the blank group. The enzymatic reaction was performed at room temperature (25 °C) for 15 min, and then, 0.2 M ZnSO4 was added to inactivate PDE2 and to stop the reaction. Then, 0.2 N Ba(OH)2 solution was added to precipitate the reaction product, and unreacted ^3H-cGMP remained in the supernatant. After mixing the system, it was centrifuged. The radioactivity of the supernatant was measured with a liquid scintillation counter, and the inhibitory activity of the compound against PDE2 was calculated. The above test was repeated three times (the IC50 test generally used 9 concentrations, and the single-point test was directly diluted with DMSO to the required concentration)."}, "PDE1C (2–634)": {"target": "T2, PDE1C (2–634) (Homo sapiens, UniProt Q14123)", "T2 construct": "PDE1C (2–634)", "T2 sequence (Q14123 2-634 isoform Q14123-2)": "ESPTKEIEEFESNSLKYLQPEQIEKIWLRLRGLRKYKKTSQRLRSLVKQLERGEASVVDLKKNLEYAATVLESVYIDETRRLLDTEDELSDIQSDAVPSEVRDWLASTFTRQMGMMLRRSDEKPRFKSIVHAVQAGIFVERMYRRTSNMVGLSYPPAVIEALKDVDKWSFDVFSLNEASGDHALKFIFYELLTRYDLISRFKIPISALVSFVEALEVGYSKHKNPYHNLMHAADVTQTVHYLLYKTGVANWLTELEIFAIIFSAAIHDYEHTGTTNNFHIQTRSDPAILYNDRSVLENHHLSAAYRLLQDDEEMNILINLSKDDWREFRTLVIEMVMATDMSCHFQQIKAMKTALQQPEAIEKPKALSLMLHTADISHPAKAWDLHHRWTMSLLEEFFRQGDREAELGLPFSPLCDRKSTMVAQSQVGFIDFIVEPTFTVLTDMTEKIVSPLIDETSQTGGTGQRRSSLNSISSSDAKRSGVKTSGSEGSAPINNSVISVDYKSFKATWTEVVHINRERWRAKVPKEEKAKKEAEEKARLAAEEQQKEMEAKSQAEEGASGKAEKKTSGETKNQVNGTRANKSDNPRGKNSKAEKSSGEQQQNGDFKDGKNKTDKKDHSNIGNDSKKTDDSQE", "test": "PDE selectivity enzymatic assay, PDE1C", "conditions": "Table 2 selectivity panel"}, "PDE4D2 (86–413)": {"target": "T3, PDE4D2 (86–413) (Homo sapiens, UniProt Q08499)", "T3 construct": "PDE4D2 (86–413)", "T3 sequence (Q08499 388-715)": "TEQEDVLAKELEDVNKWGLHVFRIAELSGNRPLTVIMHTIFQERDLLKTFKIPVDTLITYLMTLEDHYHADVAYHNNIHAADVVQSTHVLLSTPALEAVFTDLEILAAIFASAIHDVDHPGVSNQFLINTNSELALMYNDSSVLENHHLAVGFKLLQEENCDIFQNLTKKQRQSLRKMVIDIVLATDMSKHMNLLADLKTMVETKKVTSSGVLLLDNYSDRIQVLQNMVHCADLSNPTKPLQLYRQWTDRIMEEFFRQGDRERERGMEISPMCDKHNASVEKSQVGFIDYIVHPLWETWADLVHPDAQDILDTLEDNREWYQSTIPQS", "test": "PDE selectivity enzymatic assay, PDE4D2", "conditions": "Table 2 selectivity panel"}},
  "data": [
    {"smiles": "COc1ccc(OCc2ccc(C(F)(F)F)cc2)c(C2C(C#N)=C(N)Oc3[nH]nc(C)c32)c1", "note": "(single isomer, unassigned; (+)) [(+)-11h]", "values": [
      {"measurement": "inhibition at 0.1 µM", "setting": "[1]", "value": 75.9, "unit": "%"},
      {"measurement": "inhibition at 0.5 µM", "setting": "[1]", "value": 93.6, "unit": "%"},
      {"measurement": "IC50", "setting": "[1]", "value": "41.5 ± 3.4", "unit": "nM"},
      {"measurement": "IC50", "setting": "PDE1C (2–634)", "value": "8760 ± 668", "unit": "nM"},
      {"measurement": "IC50", "setting": "PDE4D2 (86–413)", "value": "> 10000", "unit": "nM"}
    ]},
    {"smiles": "COc1ccc(OCc2ccc(C(F)(F)F)cc2)c(C2C(C#N)=C(N)Oc3[nH]ncc32)c1", "note": "(stereo not shown) [Compound 11r, 6-Amino-4-(5-methoxy-2-((4-(trifluoromethyl)benzyl)oxy)phenyl)-1,4-dihydropyrano[2,3-c]pyrazole-5-carbonitrile]", "values": [
      {"measurement": "inhibition at 0.1 µM", "setting": "[1]", "value": 22.7, "unit": "%"},
      {"measurement": "inhibition at 0.5 µM", "setting": "[1]", "value": 60.5, "unit": "%"},
      {"measurement": "IC50", "setting": "[1]", "value": "445.3 ± 3.4", "unit": "nM"}
    ]},
    {"smiles": "COc1ccc(OCc2ccc(C(F)(F)F)cc2)c(C2C(C#N)=C(N)Oc3[nH]nc(-c4ccccc4)c32)c1", "note": "(stereo not shown) [Compound 11s, 6-Amino-4-(5-methoxy-2-((4-(trifluoromethyl)benzyl)oxy)phenyl)-3-phenyl-1,4-dihydropyrano[2,3-c]pyrazole-5-carbonitrile]", "values": [
      {"measurement": "inhibition at 0.1 µM", "setting": "[1]", "value": 46.3, "unit": "%"},
      {"measurement": "inhibition at 0.5 µM", "setting": "[1]", "value": 75.3, "unit": "%"},
      {"measurement": "IC50", "setting": "[1]", "value": "154 ± 6.2", "unit": "nM"}
    ]},
    {"smiles": "COc1cc(C2C(C#N)=C(N)Oc3[nH]nc(C)c32)c(OCc2ccc(C(F)(F)F)cc2)cc1Cl", "note": "(stereo not shown) [Compound 11t, 6-Amino-4-(4-chloro-5-methoxy-2-((4-(trifluoromethyl)benzyl)oxy)phenyl)-3-methyl-1,4-dihydropyrano[2,3-c]pyrazole-5-carbonitrile]", "values": [
      {"measurement": "inhibition at 0.5 µM", "setting": "[1]", "value": 10.3, "unit": "%"}
    ]},
    {"smiles": "COc1ccc(OCc2ccc(C(F)(F)F)cc2)c(C2C(C#N)=C(N(C)C)Oc3[nH]nc(C)c32)c1", "note": "(stereo not shown) [Compound 16, 6-(Dimethylamino)-4-(5-methoxy-2-((4-(trifluoromethyl)benzyl)oxy)phenyl)-3-methyl-1,4-dihydropyrano[2,3-c]pyrazole-5-carbonitrile]", "values": [
      {"measurement": "inhibition at 0.5 µM", "setting": "[1]", "value": 9.6, "unit": "%"}
    ]}
  ]
}
